Reference: US20220233662A1, “NOVEL PEPTIDE” (University College Cardiff Consultants Ltd., priority 2020, published 2022)

What was measured:
Type in all cases: cell-based, human
[1] = tested on: CD8+ T-cells from HLA A2+ healthy donors; assay: Priming of CD8+ T-cells from HLA A2+ healthy donors with WT and APL peptides, tetramer staining; settings: HLA A2+ healthy donors (n=3), compared to priming with WT peptides
Method: The peptides are sequence […] to the wild-type peptide and termed altered peptide ligands. […] (FIG. 9B) To test the APLs for super-agonist properties each of the WT and APL peptides were used to prime CD8+ T-cells from HLA A2+ healthy donors. The magnitude of the response to each of the peptides was assessed by staining the T-cells with tetramers for HLA A2-[…]
To generate T-cell peptide lines, CD8 T-cells were purified from the PBMCs of HLA A2+ donors using CD8 microbeads according to the manufacturer's instructions (Miltenyi Biotech, Bergisch Gladbach, Germany). Purified CD8 cells (3×10^6) were co-incubated with autologous CD8neg cells (6-8×10^6) in 24 well plates in 2 mL of T-cell media, but with no IL-15. 25 μM of each peptide was used. The cultures had 50% of the media changed thrice weekly. Tetramer staining was performed as above, using 500,000 cells per tube. […] 50,000 T-cells and 15,000 cancer cells were used per well. Incubation was performed for 48 h, and the assay developed according to the manufacturer's instructions (Mabtech, Nacka Strand, Sweden).
(§1) CPL assay of CR24 was performed as described above. Candidate peptide agonists were designed using the CR24 CPL and an online algorithm (http://wsbc.warwick.ac.uk/wsbcToolsWebpage/user_cases.php). Priming of CD8 T-cells from healthy donors, tetramer staining, and chromium release cytotoxicity assays were performed as described above.

T-cell clone CR24 [2] = assay: HLA A2 tetramer staining of CR24
T-cell clone CR24 [3] = assay: Activation assay of clone CR24 with exogenous peptide (peptide titration, MIP-1β ELISA)
[4] = tested on: autologous cancer cells (RCC, CLL); assay: Killing assay of peptide-primed CD8 T-cells with autologous cancer cells
Source text: (§2) (FIG. 14A) CD8 T-cells from a renal cell carcinoma (RCC) and chronic lymphocytic leukaemia (CLL) patient were left unprimed or primed with […] peptide for 28 days.

[5] = tested on: CD8 T-cells from RCC, CLL and AML patients; assay: Priming of CD8 T-cells from RCC, CLL and AML patients for 28 days, TAPI-0 assay or tetramer staining
Source text: as §2

[6] = tested on: autologous melanoma cells; assay: Chromium release cytotoxicity assay of peptide-primed T-cell lines with autologous melanoma; settings: compared to WT Melan A peptide primed T-cells
Method: as §1

ITSAIGILPV (listed as Homo sapiens) [APL 2, altered peptide ligand, candidate super-agonist designed from CR24 CPL data]
priming of Melan A, BST2 and IMP2 tetramer-positive T-cells [1]: exhibiting effect across each donor

LLLGIGILVL (listed as Homo sapiens) [wild-type peptide from BST2 (residues 22-31)]
staining of CR24 with HLA A2 tetramer containing the peptide (T-cell clone CR24 [2]): stained | recognition by CR24 as exogenous peptide (T-cell clone CR24 [3]): recognised | CR24 response to individual peptide (T-cell clone CR24 [3]; peptide at 10^-6 M): responded | CR24 response to individual peptide (T-cell clone CR24 [3]; peptide at 10^-8 M): responses dropped

MTSAIGILPV (listed as Homo sapiens) [APL 5, altered peptide ligand, super-agonist peptide for multi-pronged T-cells]
priming of Melan A, BST2 and IMP2 tetramer-positive T-cells [1]: most effective super-agonist | priming of Melan A, BST2 and IMP2 tetramer-positive T-cells ([1]; listed as MTSAIGVLVP): most effective of the candidate super-agonists | killing of CLL cells by primed T-cells ([4]; CLL patient 3, compared to IMP-2 primed CD8s): killed more CLL cells | killing of autologous cancer cells by primed CD8s ([4]; RCC and CLL patient, compared to unprimed T-cells): killed more autologous cancer cells | proportion of IMP-2 specific T-cells (IMP-2 tetramer) ([5]; AML patient and two CLL patients, primed 28 days, compared to unprimed): induced a greater proportion | MTSAIGILPV specific T-cells after priming ([5]; RCC patient (TAPI-0 assay), CLL patient (tetramer), primed 28 days): presence | priming of T-cells in RCC, CLL and AML patients ([5]; renal cell carcinoma, chronic lymphocytic leukaemia and acute myeloid leukaemia patients): superior at priming | lysis of autologous melanoma cells by peptide-primed T-cells [6]: superior lysis

NLSALGIFST (listed as Homo sapiens) [wild-type peptide from IMP2 (residues 367-376)]
staining of CR24 with HLA A2 tetramer containing the peptide (T-cell clone CR24 [2]): stained | recognition by CR24 as exogenous peptide (T-cell clone CR24 [3]): recognised | CR24 response to individual peptide (T-cell clone CR24 [3]; peptide at 10^-6 M): responded | CR24 response to individual peptide (T-cell clone CR24 [3]; peptide at 10^-8 M): responses dropped
